Columns and labels:
[1] = biological target: BoAgu115A (BACOVA_03449), GH115 α-glucuronidase of Bacteroides ovatus (Bacteroides ovatus); test: AUC; sedimentation velocity, interference optics, 48,000 rpm, 20 °C, sample volume 400 μl
[2] = biological target: T1, BoAgu115A (BACOVA_03449) (Bacteroides ovatus, UniProt A0ABU3IS40); test: X-ray crystal structure, […] Å; format: binding; settings: crystals soaked with 300 mM GlcA; pH 5.5; active site; open-chain form
T1 construct: mature form (signal peptide removed), N-terminal His6 tag (pET28a), E. coli BL21 DE3, 824 residues, 85 kDa, homodimer; modelled residues 33-856

[3] = biological target: T1, BoAgu115A (BACOVA_03449); test: coupled alpha-D-glucuronidase assay kit, NADH at […] nm; format: biochemical; settings: PC buffer (50 mM sodium phosphate, 12 mM citrate) pH 6.5, 1 mg/ml BSA, 37 °C

Question: Which stoichiometry N [1] does the source give for “BoAgu115A (BACOVA_03449), GH115 α-glucuronidase of Bacteroides ovatus (enzyme)” here?
Answer: 2

Question: With `O=C[C@H](O)[C@@H](O)[C@H](O)[C@H](O)C(=O)O` [GlcA] as the compound, how does the “X-ray crystal structure, 2.14 Å” value [2] read?
Answer: BoAgu115A was co-crystallized with GlcA, which revealed electron density for the uronic acid

Question: Which Km [3] does the source give for `CO[C@H]1[C@H](O)[C@@H](O)[C@@H](O[C@H]2[C@H](O[C@@H]3CO[C@@H](O[C@@H]4COC(O)[C@H](O)[C@H]4O)[C@H](O)[C@H]3O)OC[C@@H](O[C@@H]3OC[C@@H](O)[C@H](O)[C@H]3O)[C@@H]2O)O[C@@H]1C(=O)O` (stereo partly shown) [XUXX] here?
Answer: 4.5 mM

Question: UXX was tested. Which Km [3] did it give?
Answer: 19.5 mM

— paper PMC3879575, “Evidence That GH115 α-Glucuronidase Activity, Which Is Required to Degrade Plant Biomass, Is Dependent on Conformational Flexibility” (The Journal of Biological Chemistry, 2013)
